Experimental data published in patent US20260297105A1, “RAF-MEK PROTEIN COMPLEX MODULATORS AND METHODS OF USE THEREOF” (GANDEEVA THERAPEUTICS, INC., priority 2023, published 2026).
Where two headings read alike, the source gives them in different places.

Columns and labels:
MEK1 = biological target: T1, MEK1 (Homo sapiens, UniProt Q02750); assay: MEK1 kinase cascade assay (ADP-Glo), inhibition of MEK1 kinase activity; type: biochemical
T1 construct: purchased SignalChem M02-14H
Procedure, shortened: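 Cascade format with ADP-Glo read-out: BRAF (25 nM) and compound, 1% DMSO, 20 mins at 25° C, then MEK1 6.25 nM, ERK1 0.5 μM, ATP 1 mM for 1 hr at 25° C in HEPES pH 7.5 buffer with MgCl2, CHAPS and DTT. Percent inhibition, scaled between DMSO and 1 μM Trametinib, was fit by 4-parameter logistic to give IC50 (2 replicate wells).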

BRAF-MEK1 = assay: BRAF-MEK TR-FRET assay, stabilization of MEK1 and BRAF interaction; type: binding; conditions: read-out: BRAF-MEK TR-FRET Assay (EC50, fold stabilization)
Procedure, shortened: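 Read-out is fold stabilization (treated FRET ratio/DMSO, Em 665/620 nm), fit 4-parameter for EC50 from 2 replicates. Compounds sat with 4 nM GST-BRAF and 10 nM in-house His-MEK1 1 h at 25° C (Tris pH 7.5, MgCl2, 100 μM ATP), then detection antibodies 1 h.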

p-ERK1/2 in HCT116 cells = assay: AlphaLISA p-ERK assay, cellular inhibition of ERK phosphorylation in HCT116 cells; type: cell-based; conditions: Homo sapiens, HCT-116, 2 hours treatment, PMA stimulation 30 mins
Method: Cell culture: HCTI 16, HT-29, and NCI-H292 cells were acquired from American Type Culture Collection (ATCC). HCT116 and HT-29 cells were maintained in ATCC-formulated McCoy's 5a Medium Modified supplemented with 10% fetal bovine serum, NCI-H292 cells were cultured in ATCC formulated RPMI-1640 supplemented with 10% fetal bovine serum. All cells were maintained at 37° C., 5% CO2.
Efficacy of exemplary compounds in cellular inhibition of ERK phosphorylation: Phosphorylation status of ERK1/2 (p-ERK) was used as a readout for inhibition of BRAF-MEK pathway. p-ERK was detected using an immunoassay for quantitative detection of phospho-ERK 1/2 (phosphorylated on Thr202/Tyr204 in ERK1, or Thr185/Tyr187 in ERK2), such as the AlphaLISA® SureFire® Ultra™ p-ERK1/2 (Thr202/Tyr204) kit (Perkin Elmer). HCT116 cells were plated at 10,000 cells per well in 384-well TC-treated plates (Coming). Cells were plated for 24 hours, the medium was then aspirated and cells were treated with vehicle (DMSO) or test compounds (0.1% DMSO in final volume) prepared in serum free, phenol red free medium for 2 hours. Following treatment, cells were stimulated with PMA (1.25 μM/well) for 30 mins after which the medium was aspirated, and the cells were lysed for 10 mins with 1× lysis buffer supplemented with Halt Protease and Phosphatase Inhibitor Cocktail (Thermo Fisher). The lysate was transferred to a 384 well Alpha-plate (PerkinElmer) and incubated for 1 hour with acceptor bead mix followed by 1 hour incubation with donor bead mix. After incubation, the plate was read on a Cytation5 microplate reader (Agilent). % inhibition as a function of compound concentration from 3 replicate wells was fit with a 4-parameter logistic curve using GraphPad Prism or CDD Vault to derive IC50 values.
In this table, for the BRAF ADP Glo kinase assay, “A” indicates IC50 of less than 5 nM; “B” indicates IC50 of between 5 nM to 50 nM; and “C” indicates IC50 of between 50 nM to 500 nM. “D” indicates IC50 of greater than 500 nM. For the BRAF-MEK TR-FRET assay, “A” indicates EC50 of less than 50 nM; “B” indicates EC50 of between 50 nM to 200 nM; and “C” indicates EC50 of between 200 nM to 1 μM. “D′” indicates EC50 of greater than 1 μM. For the AlphaLisa P-ERK assay, “A” indicates IC50 of less than 1 nM; “B” indicates IC50 of between 1 nM to 10 nM; and “C” indicates IC50 of between 10 nM to 100 nM. “D” indicates IC50 of greater than 100 nM. For the cell viability assay, “A” indicates IC50 of less than 1 nM; “B” indicates IC50 of between 1 nM to 10 nM; and “C” indicates IC50 of between 10 nM to 100 nM. “D” indicates IC50 of greater than 100 nM.

NCI-H292 cells = assay: Cell viability assay (CellTiter-Glo), NCI-H292; type: cell-based; conditions: Homo sapiens, 72 hrs, read-out: Cell Viability Assay: IC50 Determination NCI-H292
Procedure, shortened: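 Cells seeded at 2,000 per well in RPMI-1640 with 10% FBS, treated 24 h later with compound (0.1% DMSO) for 72 h. Viability read by CellTiter-Glo luminescence; IC50 from 4-parameter logistic fit of % inhibition over 3 replicate wells.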

[1] = 25 nM BRAF, 6.25 nM MEK1, 0.5 μM ERK, 1 mM ATP, 20 min preincubation, 1 hr at 25° C., read-out: BRAF ADP Glo kinase assay V3 (IC50)
[2] = 4 nM BRAF, 10 nM MEK, 100 μM ATP, 1 hr at 25° C.

T1 sequence (Q02750 whole entry): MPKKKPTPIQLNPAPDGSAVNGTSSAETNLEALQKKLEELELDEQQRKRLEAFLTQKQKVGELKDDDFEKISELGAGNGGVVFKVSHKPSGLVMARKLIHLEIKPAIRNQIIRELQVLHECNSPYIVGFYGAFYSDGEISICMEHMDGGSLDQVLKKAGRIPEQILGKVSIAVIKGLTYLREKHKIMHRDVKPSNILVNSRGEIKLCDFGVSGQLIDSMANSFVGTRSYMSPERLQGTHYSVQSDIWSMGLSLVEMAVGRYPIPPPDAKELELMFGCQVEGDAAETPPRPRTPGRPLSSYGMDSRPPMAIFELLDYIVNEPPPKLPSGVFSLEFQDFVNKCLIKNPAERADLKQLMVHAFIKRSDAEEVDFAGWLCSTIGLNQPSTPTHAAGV
T1 sequence (P15056 445-723 partner limits assumed): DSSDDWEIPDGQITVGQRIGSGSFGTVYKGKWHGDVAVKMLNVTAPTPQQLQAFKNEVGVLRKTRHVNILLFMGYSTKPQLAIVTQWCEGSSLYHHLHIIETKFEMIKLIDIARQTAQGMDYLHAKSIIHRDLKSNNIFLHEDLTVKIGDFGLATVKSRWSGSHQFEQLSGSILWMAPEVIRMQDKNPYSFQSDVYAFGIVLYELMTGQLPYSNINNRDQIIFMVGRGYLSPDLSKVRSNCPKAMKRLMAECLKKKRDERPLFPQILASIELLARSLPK

Row | Structure (SMILES) | IC50 (MEK1; [1]) [nM] | EC50 (BRAF-MEK1; [2]) [nM] | IC50 (p-ERK1/2 in HCT116 cells) [nM] | IC50 (NCI-H292 cells) [nM] | IC50 (MEK1; BRAF ADP Glo kinase assay V3 (IC50)) [nM] | EC50 (BRAF-MEK1; 60 min) [nM]
1 | CNS(=O)(=O)Nc1cccc(CN2C(=O)Oc3cc(Oc4ncco4)ccc3C23COC3)c1F [Compound 95, 3-({2-fluoro-3-[(methylsulfamoyl)amino]phenyl}methyl)-7-(1,3-oxazol-2-yloxy)-2,3-dihydrospiro[1,3-benzoxazine-4,3′-oxetan]-2-one] | < 5 | 50 to 200 | 1 to 10 | 1 to 10 |  | 
2 | CN(C)S(=O)(=O)Nc1cccc(CN2C(=O)Oc3c(ccc(Oc4cccnn4)c3F)C23COC3)c1F [Compound 40, 3-({3-[(dimethylsulfamoyl)amino]-2-fluorophenyl}methyl)-8-fluoro-7-(pyridazin-3-yloxy)-2,3-dihydrospiro[1,3-benzoxazine-4,3′-oxetan]-2-one] | 5 to 50 | 50 to 200 | 10 to 100 | 1 to 10 |  | 
3 | CNS(=O)(=O)Nc1nccc(CN2Cc3ccc(Oc4nccnn4)cc3OC2=O)c1F [Compound 164, 3-{[3-fluoro-2-(methylaminosulfonylamino)-4-pyridyl]methyl}-7-(1,2,4-triazin-3-yloxy)-3,4-dihydro-2H-1,3-benzoxazin-2-one] | 5 to 50 | < 50 | 10 to 100 | < 1 |  | 
4 | CNS(=O)(=O)Nc1cccc(CN2C(=O)Oc3cc(Oc4cccnn4)c(F)cc3[C@@H]2C)c1F (single isomer, unassigned) [Compound 66] | < 5 | 200 to 1000 | 1 to 10 | 1 to 10 |  | 
5 | O=C1Oc2cc(Oc3cccnn3)c(F)cc2C2(COC2)N1Cc1cccc(NS(=O)(=O)C2CC2)c1F [Compound 53, N-(2-fluoro-3-{[6-fluoro-2-oxo-7-(pyridazin-3-yloxy)-2,3-dihydrospiro[1,3-benzoxazine-4,3′-oxetan]-3-yl]methyl}phenyl)cyclopropanesulfonamide] | 5 to 50 | 50 to 200 | 10 to 100 | 1 to 10 |  | 
6 | CNS(=O)(=O)Nc1cccc(CN2C(=O)Oc3cc(Oc4cccnn4)c(F)cc3[C@H]2C)c1F (single isomer, unassigned) [Compound 67] | 5 to 50 | 200 to 1000 | 1 to 10 | 1 to 10 |  | 
7 | CNS(=O)(=O)Nc1cccc(CN2C(=O)Oc3c(ccc(Oc4cccnn4)c3F)[C@@H]2C)c1F (single isomer, unassigned) [Compound 35] | < 5 | 50 to 200 | 10 to 100 | 10 to 100 |  | 
8 | CNS(=O)(=O)Nc1cccc(CN2Cc3c(F)cc(Oc4ncccn4)cc3OC2=O)c1F [Compound 117] | 5 to 50 | 200 to 1000 | 1 to 10 | 10 to 100 |  | 
9 | CNS(=O)(=O)Nc1cccc(CN2Cc3ccc(Oc4cccnn4)cc3OC2=O)c1F [Compound 105, 3-({2-fluoro-3-[(methylsulfamoyl)amino]phenyl}methyl)-7-(pyridazin-3-yloxy)-3,4-dihydro-2H-1,3-benzoxazin-2-one] | < 5 | < 50 | 1 to 10 | 1 to 10 |  | 
10 | CNS(=O)(=O)Nc1cccc(CN2Cc3c(F)cc(OC(=O)N(C)C)cc3OC2=O)c1F [Compound 118, 5-fluoro-3-(2-fluoro-3-((N-methylsulfamoyl)amino)benzyl)-2-oxo-3,4-dihydro-2H-benzo[e][1,3]oxazin-7-yl dimethylcarbamate] | < 5 | 50 to 200 | 1 to 10 | < 1 |  | 
11 | CNS(=O)(=O)Nc1cccc(CN2C(=O)Oc3c(ccc(Oc4ncco4)c3F)C23COC3)c1F [Compound 82] | < 5 | 200 to 1000 | 1 to 10 | 1 to 10 |  | 
12 | CNS(=O)(=O)Nc1cccc(CN2Cc3cc(Cl)c(OC(=O)N(C)C)cc3OC2=O)c1F [Compound 149, 6-chloro-3-(2-fluoro-3-((N-methylsulfamoyl)amino)benzyl)-2-oxo-3,4-dihydro-2H-benzo[e][1,3]oxazin-7-yl dimethylcarbamate] |  |  | 1 to 10 | 1 to 10 | < 5 | 50 to 200
13 | CNS(=O)(=O)Nc1cccc(CN2Cc3ccc(Oc4ncco4)cc3OC2=O)c1F [Compound 80, 3-({2-fluoro-3-[(methylsulfamoyl)amino]phenyl}methyl)-7-(1,3-oxazol-2-yloxy)-3,4-dihydro-2H-1,3-benzoxazin-2-one] | 5 to 50 | 200 to 1000 | 10 to 100 | 1 to 10 |  | 
14 | CNS(=O)(=O)Nc1cccc(CN2C(=O)Oc3cc(OC(=O)N(C)C)ccc3C23COC3)c1F [Compound 115, 3-({2-fluoro-3-[(methylsulfamoyl)amino]phenyl}methyl)-2-oxo-2,3-dihydrospiro[1,3-benzoxazine-4,3′-oxetan]-7-yl N,N-dimethylcarbamate] | < 5 | 50 to 200 | 1 to 10 | < 1 |  | 
15 | CNS(=O)(=O)Nc1cccc(CN2C(=O)Oc3cc(Oc4cccnn4)cc(F)c3C23COC3)c1F [Compound 63] | 5 to 50 | 50 to 200 | 1 to 10 | 1 to 10 |  | 
16 | CNS(=O)(=O)Nc1cccc(CN2C(=O)Oc3cc(Oc4cccnn4)ccc3[C@H]2C)c1F (single isomer, unassigned) [Compound 71] | 5 to 50 | 200 to 1000 | 10 to 100 | 1 to 10 |  | 
